US9795602B2, “Polycyclic-carbamoylpyridone compounds and their pharmaceutical use” (Gilead Sciences, Inc., priority 2014, dated 2017)

Legend:
[1] = tested on: HIV-IIIb; test: Antiviral assay in MT4 cells; format: cell-based; conditions: Human immunodeficiency virus 1, IIIB, MT4, 120 h, MT4 cells, HIV-IIIb, 5 days; read-out: EC50
In short: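 MT4 cells infected with HIV-IIIb (0.004 m.o.i.) or mock-infected, then plated at 2000 cells per well with compound. After 5 days at 37 °C, cell viability read by CellTiter-Glo chemiluminescence.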

[2] = Cytotoxicity (CC50) in MT4 cells, mock-infected; format: cell-based; conditions: human, mock-infected
In short: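 Uninfected MT4 cells, 2000 per well, incubated with compound 5 days at 37 °C. Viability by CellTiter-Glo luminescence after 2–3 min lysis at room temperature.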

[3] = Pharmacokinetics after intravenous infusion to male SD rats; format: in vivo; conditions: Sprague-Dawley, plasma, rat, IV infusion 0.5 mg/kg; for Vd: read-out: Vss
Procedure: (§1) Pharmacokinetic analysis was performed on compounds 25b and 39 following intravenous or oral administration to rats.
(§2) The test compounds were formulated in 5% Ethanol, 55% PEG 300, and 40% water at 0.1 mg/mL for IV infusion and for oral dosing.
(§3) Each dosing group consisted of 3 male, Sprague-Dawley rats. At dosing, the animals weighed an average of 0.25 kg. The animals were fasted overnight prior to dose administration and up to 4 hr after dosing.
(§4) For the IV infusion group, the test article was administered by intravenous infusion over 30 min. The rate of infusion was adjusted according to the body weight of each animal to deliver a dose of 0.5 mg/kg. For the oral dosing group, the test article was administered by oral gavage at 5 mL/kg for a dose of 0.5 mg/kg.
For pharmacokinetic analysis of intravenously administered compounds, serial venous blood samples (approximately 0.3 mL each) were taken from each animal at 0, 0.250, 0.483, 0.583, 0.750, 1.50, 3.00, 6.00, 8.00, 12.0, 24.0, 48 and 72 hours after dosing. The blood samples were collected into Vacutainer™ tubes containing EDTA-K2 as the anti-coagulant and were immediately placed on wet ice pending centrifugation for plasma. An LC/MS/MS method was used to measure the concentration of the test compound in plasma. An aliquot of 50 μL of each plasma sample was added to a clean 96 well plate, and 200 μL of cold acetonitrile/internal standard solution (ACN)/(ISTD) was added. After protein precipitation, an aliquot of 110 μL of the supernatant was transferred to a clean 96-well plate and diluted with 300 μL of water. An aliquot of 10 μL of the above solution was injected into a ABSciex API-4000 triple quadrupole LC/MS/MS system utilizing a HyPurity C18 HPLC column (30×2.1 mm, 3μ), from Thermo-Hypersil (Part #22103-032130). An Agilent 1200 series binary pump (P/N G1312A Bin Pump) was used for elution and separation, and an HTS Pal autosampler (LEAP Technologies, Carrboro, N.C.) was used for sample injection. A API-4000 triple quadrupole mass spectrometer was utilized in multiple reaction monitoring mode (Applied Biosystems, Foster City, Calif.). Liquid chromatography was performed using two mobile phases: mobile phase A contained 0.1% formic acid and 1% isopropylamine in aqueous solution, and mobile phase B contained […]. Non-compartmental pharmacokinetic analysis was performed on the plasma concentration-time data. The resulting data are shown in the first three columns of Table 2. In Table 2, Cl refers to clearance, which characterizes the rate at which drug is removed from plasma. The lower the clearance of a drug is, the longer the elimination half-life is in the body. Vss refers to the steady state volume of distribution and indicates how well a drug is distributed into the tissues. The larger the Vss is, the longer the elimination half-life is in the body. MRT refers to mean residence time, which is a measure of the average time molecules exist in the body.

[4] = Pharmacokinetics after oral administration to male SD rats; format: in vivo; conditions: Sprague-Dawley, plasma, rat, oral gavage 0.5 mg/kg, solution, read-out: % F (solution)
Procedure: as §1, §2, §3, §4
For pharmacokinetic analysis of orally administered compounds, serial venous blood samples (approximately 0.3 mL each) were taken from each animal at time points of 0, 0.25, 0.50, 1.0, 2.0, 4.0, 6.0, 8.0, 12.0 24.0, 48.0 and 72 hours after dosing. Blood samples were collected, prepared and analyzed in a similar way to the intravenous studies described above. Non-compartmental pharmacokinetic analysis was performed on the plasma concentration-time data. In Table 2, F (%) refers to oral bioavailability.

[5] = tested on: wild-type HIV-1; test: Antiviral assay in MT-2 cells, wild-type HIV-1; format: cell-based; conditions: Human immunodeficiency virus 1, 120 h; MT2 cells, wild-type HIV-1, 5 days; read-out: wt
Procedure: For the antiviral assay utilizing MT-2 cells, 50 μL of 2× test concentration of 3-fold serially diluted compound in culture medium with 10% FBS was added to each well of a 96-well plate (9 concentrations) in triplicate. MT-2 cells were infected with wild-type or mutant variants of HIV-1 for 3 hours using a volume of viral inoculum determined to produce 90% cell killing. Fifty microliters of infected cell suspension in culture medium with 10% FBS (˜1.5×10^4 cells) was then added to each well containing 50 μL of serially diluted compound. The plates with HIV-infected cultures were then incubated at 37° C. for 5 days in the presence of the tested compounds. After 5 days of incubation, 100 μL of CellTiter-Glo™ Reagent (catalog # G7571, Promega Biosciences, Inc., Madison, Wis.) was added to each well. Cell lysis was carried out by incubating at room temperature for 10 min followed by a chemiluminescence read-out.
The chemiluminescence readout from the 10-point antiviral dose response was analyzed directly by curve fitting with equation (I) to determine the EC50.
where y=Cell Survival, M=maximum cell survival enabled by drug protection, H=baseline cell survival without drug protection, n=Hill coefficient of the antiviral dose response, m=Hill coefficient of the cytotoxicity dose response, and [I]=inhibitor concentration.
EC50 values (mean±standard deviation) were calculated from at least three independent experiments performed in triplicate. The fold-change in antiviral activity of tested compounds was calculated as a ratio of the mean EC50 for each mutant virus divided by the mean EC50 of the control WT virus.

SMILES	EC50 [1]	CC50 at 5 days [2]	MRT [3]	clearance [3]	Vd [3]	bioavailability [4]	EC50 [5]
CCN1C(=O)c2c(O)c(=O)c(C(=O)NCc3ccc(F)c(Cl)c3F)cn2[C@H]2CCO[C@H]21 [Compound 25b]	4.37 nM	26700 nM	119 h	1.3 mL/h/kg	0.141 L/kg	39%	1.4 nM
CCN1C(=O)c2c(O)c(=O)c(C(=O)NCc3ccc(F)c(Cl)c3F)cn2[C@H]2CCOC[C@H]21 [Compound 39]	2.58 nM	12800 nM	105 h	2.3 mL/h/kg	0.212 L/kg	15%	0.9 nM
